The record followed here is US20220054469A1, “FARNESOID X RECEPTOR AGONISTS AND USES THEREOF” (Metacrine, Inc., priority 2018, published 2022).

Molecules are shown by their SMILES.

The assay has as its target T1, hFXR (Homo sapiens, UniProt Q96RI1).
T1 construct: expressed in transfected cells; host or cells: CV-1 cells
T1 sequence (Q96RI1 1-486): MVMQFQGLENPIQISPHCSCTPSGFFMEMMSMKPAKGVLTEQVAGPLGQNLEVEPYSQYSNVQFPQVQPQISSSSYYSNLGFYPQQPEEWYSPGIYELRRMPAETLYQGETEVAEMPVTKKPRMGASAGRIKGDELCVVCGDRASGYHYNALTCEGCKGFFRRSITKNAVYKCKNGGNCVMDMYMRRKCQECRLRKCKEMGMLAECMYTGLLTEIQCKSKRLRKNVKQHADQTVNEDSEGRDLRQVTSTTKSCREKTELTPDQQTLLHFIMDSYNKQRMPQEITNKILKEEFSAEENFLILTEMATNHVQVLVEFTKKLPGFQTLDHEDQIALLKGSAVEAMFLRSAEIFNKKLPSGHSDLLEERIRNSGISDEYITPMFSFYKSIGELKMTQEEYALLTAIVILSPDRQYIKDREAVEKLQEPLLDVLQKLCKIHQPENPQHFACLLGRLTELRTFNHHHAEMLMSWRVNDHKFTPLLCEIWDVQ
T1 sequence (P19793 1-462 partner): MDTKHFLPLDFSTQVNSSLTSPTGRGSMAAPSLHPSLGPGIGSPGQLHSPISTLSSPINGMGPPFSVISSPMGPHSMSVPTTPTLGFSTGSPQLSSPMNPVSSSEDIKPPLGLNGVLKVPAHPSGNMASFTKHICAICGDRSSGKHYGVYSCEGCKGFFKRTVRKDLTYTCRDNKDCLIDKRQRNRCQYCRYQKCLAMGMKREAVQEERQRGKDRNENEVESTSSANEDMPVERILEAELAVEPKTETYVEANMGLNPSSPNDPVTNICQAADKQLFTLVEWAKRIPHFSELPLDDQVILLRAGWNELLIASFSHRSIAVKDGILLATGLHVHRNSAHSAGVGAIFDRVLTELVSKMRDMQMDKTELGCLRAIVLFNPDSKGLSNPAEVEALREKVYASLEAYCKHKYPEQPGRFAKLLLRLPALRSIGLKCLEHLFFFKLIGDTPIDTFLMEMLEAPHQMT
Put plainly: In Vitro FXR Assay (TK). Type of assay: cell-based. The settings on record: CV-1 cells transfected with hFXR, hRXR, TK-ECRE-luc and pCMX-YFP; incubated with compound for 18 hrs; luminescence. Here is the method: Example B-1: In Vitro FXR Assay (TK)
CV-1 cells were seeded at a density of 2,000,000 cells in a T175 flask with DMEM+10% charcoal double-stripped FBS and incubated at 37° C. in 5% CO2 for 18 h (O/N).
After 18 h of incubation, the medium in the T175 flask was changed with fresh DMEM+10% charcoal super-stripped serum. In a polypropylene tube, 2500 μL OptiMEM (Life Technologies, Cat #31985-062) was combined with expression plasmids for hFXR, hRXR, TK-ECRE-luc and pCMX-YFP. The tube was then briefly vortexed and incubated at room temperature for 5 minutes. Transfection reagent (X-tremeGENE HP from Roche, Cat #06 366 236 001) was added to the OptiMEM/plasmid mixture vortexed and incubated at room temperature for 20 minutes. Following incubation, the transfection reagent/DNA mixture complex was added to cells in the T175 flask and the cells were incubated at 37° C. in 5% CO2 for 18 h (O/N).
Compounds were serially diluted in DMSO and added to transfected CV-1 cells. The cells were then incubated for 18 hrs. The next day cells were lysed and examined for luminescence.
Turning to `COc1ccc(C23CCC(CN(c4cccc(-c5cnn(C(C)C)c5)c4F)C(=O)[C@H]4CC[C@H](CC(=O)O)CC4)(CC2)CC3)cc1C` [Compound 2.08, trans-2-(4-((2-Fluoro-3-(1-isopropyl-1H-pyrazol-4-yl)phenyl)((4-(4-methoxy-3-methylphenyl)bicyclo[2.2.2]octan-1-yl)methyl)carbamoyl)cyclohexyl)acetic acid], the EC50 (commonly the concentration needed to bring the measured effect to its halfway point) is not above 0.05 µM.

Consider `COc1ccc(C23CCC(CN(c4cc(-n5ccc(C(C)C)n5)ccn4)C(=O)[C@H]4CC[C@H](CC(=O)O)CC4)(CC2)CC3)cc1C` [Compound 4.24, trans-2-(4-((4-(3-Isopropyl-1H-pyrazol-1-yl)pyridin-2-yl)((4-(4-methoxy-3-methylphenyl)bicyclo[2.2.2]octan-1-yl)methyl)carbamoyl)cyclohexyl)acetic acid], for which the EC50 was in the range of 0.05 to 1 µM.

With `COc1ccc(C23CCC(CN(c4cncc(-c5cnn(C(C)C)c5)c4)C(=O)[C@H]4CC[C@H](CC(=O)O)CC4)(CC2)CC3)cc1C` (relative stereo) [Compound 2.11, trans-2-(4-((5-(1-Isopropyl-1H-pyrazol-4-yl)pyridin-3-yl)((4-(4-methoxy-3-methylphenyl)bicyclo[2.2.2]octan-1-yl)methyl)carbamoyl)cyclohexyl)acetic acid], the EC50 fell in the range of 0.05 to 1 µM.

`COc1ccc(C23CCC(CN(C(=O)[C@@H]4CCC[C@@H](C(=O)O)C4)c4cc(-c5cnn(C(C)C)c5)ccn4)(CC2)CC3)cc1C` (relative stereo) [Compound 3.06, trans-3-((4-(1-Isopropyl-1H-pyrazol-4-yl)pyridin-2-yl)((4-(4-methoxy-3-methylphenyl)bicyclo[2.2.2]octan-1-yl)methyl)carbamoyl)cyclohexanecarboxylic acid]: the EC50 was in the range of 0.05 to 1 µM. In the case of `COc1ccc(C23CCC(CN(c4cccc(-n5cnc(C6CC6)c5)c4)C(=O)[C@H]4CC[C@H](CC(=O)O)CC4)(CC2)CC3)cc1C` [Compound 4.29, trans-2-(-4-((3-(4-Cyclopropyl-1H-imidazol-1-yl)phenyl)((4-(4-methoxy-3-methylphenyl)bicyclo[2.2.2]octan-1-yl)methyl)carbamoyl)cyclohexyl)acetic acid], the EC50 was not above 0.05 µM. The figure for `COc1ccc([C@H]2CC[C@H](CN(c3cccc(-c4cnn(C(C)(C)C)c4)c3)C(=O)[C@H]3CC[C@H](CCC(=O)O)CC3)CC2)cc1C` [Compound 3.03, trans-3-(4-((3-(1-(tert-Butyl)-1H-pyrazol-4-yl)phenyl)((trans-4-(4-methoxy-3-methylphenyl)cyclohexyl)methyl)carbamoyl)cyclohexyl)propanoic acid] is not above 0.05 µM; for `COc1ccc(C23CCC(CN(c4ccnc(-c5cnn(C(C)C)c5)c4)C(=O)[C@H]4CC[C@H](CC(=O)O)CC4)(CC2)CC3)cc1C` (relative stereo) [Compound 4.05, trans-2-(4-((2-(1-Isopropyl-1H-pyrazol-4-yl)pyridin-4-yl)((4-(4-methoxy-3-methylphenyl)bicyclo[2.2.2]octan-1-yl)methyl)carbamoyl)cyclohexyl)acetic acid] it is 0.05 to 1 µM. Take `COc1ccc(C23CCC(CN(c4cccc(-c5cnn(C(C)(C)C)c5)c4)C(=O)[C@H]4CC[C@H](CC(=O)O)CC4)(CC2)CC3)cc1C` [Compound 2.06, trans-2-(4-((3-(1-(tert-Butyl)-1H-pyrazol-4-yl)phenyl)((4-(4-methoxy-3-methylphenyl)bicyclo[2.2.2]octan-1-yl)methyl)carbamoyl)cyclohexyl)acetic acid]: the EC50 is not above 0.05 µM.

As to `COc1ccc(C23CCC(CN(c4cc(-n5cc(C(C)C)cn5)ccn4)C(=O)[C@H]4CC[C@H](CC(=O)O)CC4)(CC2)CC3)cc1C` [Compound 4.22, trans-2-(4-((4-(4-Isopropyl-1H-pyrazol-1-yl)pyridin-2-yl)((4-(4-methoxy-3-methylphenyl)bicyclo[2.2.2]octan-1-yl)methyl)carbamoyl)cyclohexyl)acetic acid], the EC50 fell in the range of 0.05 to 1 µM. Take `COc1ccc(C23CCC(CN(c4cc(-c5coc(C(C)(C)C)n5)ccn4)C(=O)[C@H]4CC[C@H](CC(=O)O)CC4)(CC2)CC3)cc1C` [Compound 4.18, trans-2-(4-((4-(2-(tert-Butyl)oxazol-4-yl)pyridin-2-yl)((4-(4-methoxy-3-methylphenyl)bicyclo[2.2.2]octan-1-yl)methyl)carbamoyl)cyclohexyl)acetic acid]: the EC50 was not above 0.05 µM.

As to `COc1ccc(C23CCC(CN(c4cc(-c5cnn(C(C)C)c5)ccn4)C(=O)[C@H]4CC[C@@H](CC(=O)O)CC4)(CC2)CC3)cc1C` [Compound 5.02, cis-2-(4-((4-(1-Isopropyl-1H-pyrazol-4-yl)pyridin-2-yl)((4-(4-methoxy-3-methylphenyl)bicyclo[2.2.2]octan-1-yl)methyl)carbamoyl)cyclohexyl)acetic acid], the EC50 fell in the range of 0.05 to 1 µM. Turning to `COc1ncc(C23CCC(CN(c4cc(-c5cnn(C(C)C)c5)ccn4)C(=O)[C@H]4CC[C@H](CC(=O)O)CC4)(CC2)CC3)cc1C` [Compound 4.12, trans-2-(4-((4-(1-Isopropyl-1H-pyrazol-4-yl)pyridin-2-yl)((4-(6-methoxy-5-methylpyridin-3-yl)bicyclo[2.2.2]octan-1-yl)methyl)carbamoyl)cyclohexyl)acetic acid], the EC50 was not above 0.05 µM. On to `COc1ccc(C23CCC(CN(c4cccc(-c5nnc(C6CC6)o5)c4)C(=O)[C@H]4CC[C@H](CC(=O)O)CC4)(CC2)CC3)cc1C` [Compound 4.30, trans-2-(-4-((3-(5-Cyclopropyl-1,3,4-oxadiazol-2-yl)phenyl)((4-(4-methoxy-3-methylphenyl)bicyclo[2.2.2]octan-1-yl)methyl)carbamoyl)cyclohexyl)acetic acid], for which the EC50 was in the range of 0.05 to 1 µM. Take `COc1ccc([C@H]2CC[C@H](CN(c3cc(-c4cnn(C(C)(C)C)c4)ccn3)C(=O)[C@H]3CC[C@H](CC(=O)O)CC3)CC2)cc1C` [Compound 2.05, 2-(trans-4-((4-(1-(tert-Butyl)-1H-pyrazol-4-yl)pyridin-2-yl)((trans-4-(4-methoxy-3-methylphenyl)cyclohexyl)methyl)carbamoyl)cyclohexyl)acetic acid]: the EC50 was in the range of 0.05 to 1 µM. With `COc1ccc(C23CCC(CN(c4cc(-c5cnn(C(C)(C)C)c5)ccn4)C(=O)[C@H]4CC[C@H](CCC(=O)O)CC4)(CC2)CC3)cc1C` [Compound 3.04, trans-3-(4-((4-(1-(tert-Butyl)-1H-pyrazol-4-yl)pyridin-2-yl)((4-(4-methoxy-3-methylphenyl)bicyclo[2.2.2]octan-1-yl)methyl)carbamoyl)cyclohexyl)propanoic acid], the EC50 is not above 0.05 µM. Consider `COc1ccc(C23CCC(CN(c4cc(-c5cnn(C(C)C)c5)c(F)cn4)C(=O)[C@H]4CC[C@H](CC(=O)O)CC4)(CC2)CC3)cc1C` [Compound 2.10, trans-2-(4-((5-Fluoro-4-(1-isopropyl-1H-pyrazol-4-yl)pyridin-2-yl)((4-(4-methoxy-3-methylphenyl)bicyclo[2.2.2]octan-1-yl)methyl)carbamoyl)cyclohexyl)acetic acid], for which the EC50 was not above 0.05 µM. `COc1ccc(C23CCC(CN(c4cccc(-n5cnc(C6CC6)n5)c4)C(=O)[C@H]4CC[C@H](CC(=O)O)CC4)(CC2)CC3)cc1C` [Compound 4.28, trans-2-(4-((3-(3-Cyclopropyl-1H-1,2,4-triazol-1-yl)phenyl)((4-(4-methoxy-3-methylphenyl)bicyclo[2.2.2]octan-1-yl)methyl)carbamoyl)cyclohexyl)acetic acid]: the EC50 is not above 0.05 µM. As for `COc1ccc(C23CCC(CN(C(=O)[C@@H]4CCC[C@@H](CC(=O)O)C4)c4cc(-c5cnn(C(C)C)c5)ccn4)(CC2)CC3)cc1C` (relative stereo) [Compound 5.01, trans-2-(3-((4-(1-Isopropyl-1H-pyrazol-4-yl)pyridin-2-yl)((4-(4-methoxy-3-methylphenyl)bicyclo[2.2.2]octan-1-yl)methyl)carbamoyl)cyclohexyl)acetic acid], the EC50 is 0.05 to 1 µM.
